The source made the active and inactive calls. The calls are words filed in the database; no cut-off is given here.
Tests used:
HepG2 = experiment: Cytotoxicity against human HepG2 cells; assay type: cell-based
[1] = target: T1, Bile acid receptor (Homo sapiens) (UniProt Q96RI1); experiment: Agonist activity at FXR LBD expressed in human HepG2 cells co-expressing GAL4 DBD and pG5-luc assessed as luciferase activity at 1 uM after 48 hrs by transient transfection reporter assay relative to control; assay type: functional, cell-based
T1 sequence (whole entry): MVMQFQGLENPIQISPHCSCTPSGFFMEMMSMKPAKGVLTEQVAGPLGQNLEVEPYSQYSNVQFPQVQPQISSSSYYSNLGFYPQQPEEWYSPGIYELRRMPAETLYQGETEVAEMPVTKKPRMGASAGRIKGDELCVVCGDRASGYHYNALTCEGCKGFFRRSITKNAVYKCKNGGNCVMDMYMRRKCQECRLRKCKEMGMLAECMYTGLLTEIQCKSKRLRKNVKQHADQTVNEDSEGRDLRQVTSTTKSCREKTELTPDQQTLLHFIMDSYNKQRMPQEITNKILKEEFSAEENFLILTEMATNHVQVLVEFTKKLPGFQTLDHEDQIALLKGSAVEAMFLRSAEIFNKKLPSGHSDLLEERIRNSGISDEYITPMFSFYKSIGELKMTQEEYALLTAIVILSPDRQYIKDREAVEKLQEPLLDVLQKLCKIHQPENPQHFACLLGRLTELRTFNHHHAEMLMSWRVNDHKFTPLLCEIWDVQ

[2] = target: T1, Bile acid receptor (Homo sapiens); experiment: Agonist activity at FXR LBD expressed in human HepG2 cells co-expressing GAL4 DBD and pG5-luc assessed as luciferase activity at 100 nM after 48 hrs by transient transfection reporter assay relative to control; assay type: functional, cell-based
[3] = target: T1, Bile acid receptor (Homo sapiens); experiment: Agonist activity at FXR LBD expressed in human HepG2 cells co-expressing GAL4 DBD and pG5-luc assessed as SHP promoter-driven luciferase activity at 1 uM after 48 hrs by transient transfection reporter assay relative to control; assay type: functional, cell-based
[4] = target: T1, Bile acid receptor (Homo sapiens); experiment: Agonist activity at FXR LBD expressed in human HepG2 cells co-expressing GAL4 DBD and pG5-luc assessed as SHP promoter-driven luciferase activity at 100 nM after 48 hrs by transient transfection reporter assay relative to control; assay type: functional, cell-based
[5] = target: T1, Bile acid receptor (Homo sapiens); experiment: Agonist activity at FXR LBD expressed in human HepG2 cells co-expressing GAL4 DBD and pG5-luc assessed as transrepression of rat CYP7A1 promoter-driven luciferase activity at 100 nM after 48 hrs by transient transfection reporter assay relative to control; assay type: functional, cell-based
[6] = target: T1, Bile acid receptor (Homo sapiens); experiment: Agonist activity at FXR LBD expressed in human HepG2 cells co-expressing GAL4 DBD and pG5-luc assessed as transrepression of rat CYP7A1 promoter-driven luciferase activity after 48 hrs by transient transfection reporter assay relative to control; assay type: functional, cell-based
[7] = target: T1, Bile acid receptor (Homo sapiens); experiment: Agonist activity at FXR LBD expressed in human HepG2 cells co-expressing GAL4 DBD and pG5-luc assessed as PLTP promoter-driven luciferase activity at 100 nM after 48 hrs by transient transfection reporter assay relative to control; assay type: functional, cell-based
[8] = target: T1, Bile acid receptor (Homo sapiens); experiment: Agonist activity at FXR LBD expressed in human HepG2 cells co-expressing GAL4 DBD and pG5-luc assessed as PLTP promoter-driven luciferase activity after 48 hrs by transient transfection reporter assay relative to control; assay type: functional, cell-based

SMILES	Activity (HepG2)	Ratio [1]	Activity [2]	Ratio [3]	Activity [4]	Activity [5]	Activity [6]	Activity [7]	Activity [8]
CC(=O)O[C@@H](C[C@@H](C)C1=C2[C@H](O)[C@H](O)[C@H]3[C@@]4(C)CCC(=O)C(C)(C)[C@@H]4CC[C@]3(C)[C@@]2(C)CC1=O)[C@H]1OC1(C)C	Non-toxic	2	inactive	1.6	inactive	85%	Dose-dependent effect	inactive	Dose-dependent effect
C[C@H](C[C@H](O)[C@H]1OC1(C)C)C1=C2C[C@H](O)[C@H]3[C@@]4(C)CCC(=O)C(C)(C)[C@@H]4CC[C@]3(C)[C@@]2(C)CC1 [ALISOL B]	Toxic								
CC(=O)O[C@@H](C[C@@H](C)C1=C2C[C@H](O)[C@H]3[C@@]4(C)CCC(=O)C(C)(C)[C@@H]4CC[C@]3(C)[C@@]2(C)CC1)[C@@H](O)C(C)(C)O	Non-toxic	2	inactive	1.6	inactive	inactive	Dose-dependent effect	inactive	Dose-dependent effect

Source: ChEMBL document CHEMBL2057180, “Triterpenes from Alisma orientalis act as farnesoid X receptor agonists” (Bioorg Med Chem Lett, 2012)
